Assays:
[1] = tested on: H322 NSCLC cell line; experiment: Sensitivity of tumor cells to EGFR kinase inhibitor; assay type: cell-based, human; conditions: phenotype Epithelial
Description: (§1) The human NSCLC lines H1299, H266, H522, H650, H1437, H1155, Calu1, Hop92, H23, H292, H358, H322, H441, A549, Calu6, H460, H1703 and SW1573 were cultured in the appropriate ATCC recommended supplemented media. Cell extracts were prepared by detergent lysis (50 mM Tris-HCl, pH8, 150 mM NaCl, 1% NP-40, 0.5% NaDeoxycholate, 0.1% SDS) containing protease and phosphatase inhibitors. The soluble protein concentration was determined by micro-BSA assay (Pierce, Rockford Ill.). In experiments monitoring serum stimulation, cells were grown in media with 0.5% FBS for 24 hours followed by addition of FBS to a final concentration of 10% for 10 minutes prior to lysis. In experiments where inhibitor treatment was required, inhibitor was added at the indicated concentration and the cells the stimulated with the indicated ligand. For cell proliferation assays cells were plated, inhibitor added and proliferation measured after 72 hours using the CELLTITERGLO™ cell viability assay (Promega, Madison Wis.).

[2] = tested on: H1437 NSCLC cell line; experiment: as above; assay type: cell-based, human; conditions: phenotype Epithelial
Description: as §1

[3] = tested on: CALU1 NSCLC cell line; experiment: as above; assay type: cell-based, human; conditions: phenotype Mesenchymal-like
Description: as §1

[4] = tested on: H292 NSCLC cell line; experiment: as above; assay type: cell-based, human; conditions: phenotype Epithelial
Description: as §1

[5] = tested on: H460 NSCLC cell line; experiment: as above; assay type: cell-based, human; conditions: phenotype Mesenchymal-like
Description: as §1

[6] = tested on: A549 NSCLC cell line; experiment: as above; assay type: cell-based, human; conditions: phenotype Mixed
Description: as §1

[7] = tested on: H441 NSCLC cell line; experiment: as above; assay type: cell-based, human; conditions: phenotype Epithelial
Description: as §1

[8] = tested on: H358 NSCLC cell line; experiment: as above; assay type: cell-based, human; conditions: phenotype Epithelial
Description: as §1

[9] = tested on: H1155 NSCLC cell line; experiment: as above; assay type: cell-based, human; conditions: phenotype Mesenchymal-like
Description: as §1

[10] = tested on: H650 NSCLC cell line; experiment: as above; assay type: cell-based, human; conditions: phenotype Mesenchymal-like
Description: as §1

[11] = tested on: H1703 NSCLC cell line; experiment: as above; assay type: cell-based, human; conditions: phenotype Mesenchymal-like
Description: as §1

[12] = tested on: H23 NSCLC cell line; experiment: as above; assay type: cell-based, human; conditions: phenotype Mesenchymal-like
Description: as §1

[13] = tested on: H522 NSCLC cell line; experiment: as above; assay type: cell-based, human; conditions: phenotype Mesenchymal-like
Description: as §1

[14] = tested on: H1299 NSCLC cell line; experiment: as above; assay type: cell-based, human; conditions: phenotype Mesenchymal-like
Description: as §1

[15] = tested on: CALU6 NSCLC cell line; experiment: as above; assay type: cell-based, human; conditions: phenotype Mesenchymal-like
Description: as §1

[16] = tested on: SW1573 NSCLC cell line; experiment: as above; assay type: cell-based, human; conditions: phenotype Mesenchymal-like
Description: as §1

[17] = tested on: HOP92 NSCLC cell line; experiment: as above; assay type: cell-based, human; conditions: phenotype Mesenchymal-like
Description: as §1

[18] = tested on: H226 NSCLC cell line; experiment: as above; assay type: cell-based, human; conditions: phenotype Mesenchymal-like
Description: as §1

[19] = tested on: Calu6 NSCLC xenograft; experiment: Xenograft tumor growth inhibition; assay type: in vivo, CD-1 nu/nu mice; conditions: Calu6 xenograft in mice; 100 mg/kg once a day for 14 days, oral gavage
Description: (§2) FIG. 9: Sensitivity of NSCLC cell lines to erlotinib In Vivo. Female CD-1 nu/nu mice were implanted with H292 or Calu6 cells and tumor allowed to grow to 200 mm^3. Animals were then either left untreated or treated with 100 mg/kg erlotinib once a day for 14 days. Tumor volume was measured twice weekly.
(§3) Female CD-1 nu/nu mice (Charles River Laboratories, Wilmington, Mass.) were implanted with harvested NSCLC tumor cells in a single subcutaneous site on the flank of the mice in the axillary region. Tumors were allowed to grow to 200±50 mm^3, at which time the animals were sorted into treatment groups of 8 animals per group based on weight (±1 g body weight) and tattooed on the tail for permanent identification. Tumor volumes and body weights were determined twice weekly. The tumor volume was determined by measuring in two directions with vernier calipers and calculated using the formula: Tumor volume=(length×width^2)/2. The data were plotted as the % change in mean values of tumor volume and body weight for each group. The tumor growth inhibition (% TGI) was determined as % TGI=[…]: where Wt is the median tumor volume of the treated group at time x and Wc is the median tumor volume of the control group at time x. TARCEVA® was dosed in a 6% Captisol (CyDex, Inc) in WFI (Water for Injection) solution and all control animals were dosed with an equal volume of the vehicle. […]

[20] = tested on: H292 NSCLC xenograft; experiment: Xenograft tumor growth inhibition; assay type: in vivo, CD-1 nu/nu mice; conditions: H292 xenograft in mice; 100 mg/kg once a day for 14 days, oral gavage
Description: as §2, §3

[21] = tested on: H226 cells; experiment: Cell proliferation, CellTitreGlo assay; assay type: cell-based, human
Description: (§4) FIG. 6: Inhibition of FGFR activity in NSCLC. A. H1703 (▪), Calu1 (▴) and H226 (▾) cells were treated with increasing concentrations of FGFR inhibitor (PD173074). After 72 hours incubation proliferation of the cells was measured by CellTitreGlo assay and plotted as a % proliferation relative to untreated cells.
as §1

[22] = tested on: Calu1 cells; experiment: Cell proliferation, CellTitreGlo assay; assay type: cell-based, human
Description: as §4, §1

[23] = tested on: H1703 cells; experiment: Cell proliferation, CellTitreGlo assay; assay type: cell-based, human
Description: (§5) FIG. 3: Inhibition of PDGFR activity in NSCLC. A. H1703 cells were treated with increasing concentrations of PDGFR inhibitor 1 (OSI-930) (▪), PDGFR inhibitor 2 (▴) or an EGFR inhibitor (erlotinib) (▾). After 72 hours incubation proliferation of the cells was measured by CellTitreGlo assay and plotted as a % proliferation relative to untreated cells. B. H1703 cells were treated with the PDGFR inhibitor OSI-930 for 2 hours and then left untreated or treated with PDGF (10 ng/ml) for 15 mins. Protein extracts were prepared and immunoblots probed with the indicated antibodies C. H1703 and Calu1 cells were treated with either 1 or 5 μM of PDGFR inhibitor OSI-930 and the effect on closure of the wound analysed after 24 hrs.
as §4, §1

[24] = tested on: ERK MAP kinase and AKT pathways in H226 cells; experiment: Intracellular signaling, immunoblot of pERK and pAKT; assay type: cell-based, human
Description: (§6) FIG. 7: Inhibition of FGFR Signaling in H1703 and H226 NSCLC Cells. H1703 and H226 cells were treated with either […] PD173074 for 2 hours and then left untreated (CON) or treated with 10 ng/ml FGF for 15 min (FGF). Cell lysates were prepared and immunoblots using antibodies against pERK, total ERK, pAKT (ser473), total AKT and β-actin were performed.
as §1, with “Wis.). […]” for “Wis.).”

[25] = tested on: H1703 cells; experiment: Cell motility, closure of the wound; assay type: cell-based, human; conditions: 1 or 5 μM, 24 hrs
Description: as §5

[26] = tested on: Calu1 cells; experiment: Cell motility, closure of the wound; assay type: cell-based, human; conditions: 1 or 5 μM, 24 hrs
Description: as §5

[27] = tested on: H358 cells; experiment: Cell proliferation, CellTitreGlo assay; assay type: cell-based, human
Description: as §1

[28] = tested on: ERK MAP kinase and AKT pathways in H1703 cells; experiment: Intracellular signaling, immunoblot of pERK and pAKT; assay type: cell-based, human; parameters: AKT pathway inhibition: dose or concentration left out as unconfirmed
Description: as §5, §6
as §1, with “Wis.). […]” for “Wis.).”

[29] = tested on: ERK MAP kinase and AKT pathways in Calu1 cells; experiment: as above; assay type: cell-based, human; conditions: presence or absence of exogenously added ligand
Description: as §1
Protein immunodetection was performed by electrophoretic transfer of SDS-PAGE separated proteins to nitrocellulose, incubation with antibody and chemiluminescent detection (PicoWest; Pierce, Rockford, Ill.). […]

[30] = 0.5% FCS and PDGF (mixed AA, AB and BB forms) added
[31] = increasing concentrations, 72 hours
[32] = for 2 hours, basal and FGF (10 ng/ml, 15 min) stimulated

SMILES: C#Cc1cccc(Nc2ncnc3cc(OCCOC)c(OCCOC)cc23)c1 [Erlotinib, [6,7-bis(2-methoxyethoxy)-4-quinazolin-4-yl]-(3-ethynylphenyl) amine]
- Erlotinib Senistivity [1]: Sensitive
- Erlotinib Senistivity [2]: Insensitive
- Erlotinib Senistivity [3]: Insensitive
- Erlotinib Senistivity [4]: Sensitive
- Erlotinib Senistivity [5]: Insensitive
- Erlotinib Senistivity [6]: Intermediate
- Erlotinib Senistivity [7]: Sensitive
- Erlotinib Senistivity [8]: Sensitive
- Erlotinib Senistivity [9]: Insensitive
- Erlotinib Senistivity [10]: Insensitive
- Erlotinib Senistivity [11]: Insensitive
- Erlotinib Senistivity ([11]; listed as erlotinib): insensitive
- Erlotinib Senistivity [12]: Insensitive
- Erlotinib Senistivity ([12]; listed as erlotinib): insensitive
- Erlotinib Senistivity [13]: Insensitive
- Erlotinib Senistivity [14]: Insensitive
- Erlotinib Senistivity [15]: Insensitive
- Erlotinib Senistivity [16]: Insensitive
- Erlotinib Senistivity [17]: Insensitive
- Erlotinib Senistivity ([17]; listed as erlotinib): insensitive
- Erlotinib Senistivity [18]: Insensitive
- Xenograft growth, tumor volume [19]: insensitive to EGFR inhibition
- Xenograft growth, tumor volume [20]: sensitive to EGFR inhibition and shows a reduction in tumor volume during the dosing period

SMILES: O=C(Nc1ccc(OC(F)(F)F)cc1)c1sccc1NCc1ccnc2ccccc12 [OSI-930]
- Inhibition of cell growth (proliferation) [21, 30]: failed to show any enhanced growth inhibition
- Inhibition of cell growth (proliferation) ([21]; 10% FCS, 72 hours): not growth inhibited
- Inhibition of cell growth (proliferation) [22, 30]: failed to show any enhanced growth inhibition
- Inhibition of cell growth (proliferation) ([22]; 10% FCS, 72 hours): not growth inhibited
- Inhibition of cell growth (proliferation) [23, 30]: inhibited more potently
- Inhibition of cell growth (proliferation) ([23]; 10% FCS, 72 hours): Inhibition of cell growth
- Inhibition of ERK and AKT pathways ([24]; basal and PDGF ligand stimulated): only showed ligand induced inhibition of ERK and AKT pathways
- Cell motility (closure of the wound) [25]: inhibition of cell motility
- Cell motility (closure of the wound) [26]: inhibition of cell motility
- Inhibition of cell growth (proliferation) [27, 30]: failed to show any enhanced growth inhibition
- Inhibition of cell growth (proliferation) ([27]; 10% FCS, 72 hours): only observed in H1703 cells
- Phosphorylation of ERK MAP kinase and AKT (serine 473) ([28]; inhibitor 2 hours, basal (10% FCS) and ligand stimulated (PDGF 10 ng/ml, 15 mins)): reduced phosphorylation of ERK MAP kinase and AKT (on serine 473)

SMILES: CCN(CC)CCCCNc1ncc2cc(-c3cc(OC)cc(OC)c3)c(NC(=O)NC(C)(C)C)nc2n1 [PD173074]
- Growth inhibition (proliferation) [21, 31]: growth inhibited
- Growth inhibition (proliferation) [22, 31]: little effect
- Growth inhibition (proliferation) [23, 31]: growth inhibited
- Activation of the ERK MAP kinase pathway [24, 32]: inhibited
- Activation of the ERK MAP kinase pathway [28, 32]: inhibited
- AKT pathway inhibition ([28]; for 2 hours, basal and FGF stimulated): only inhibited after ligand stimulation
- Signaling (ERK, AKT) [29]: unaffected
